From patent US8530680B2, “System and method for controlling growth of microorganisms with brominated furanones” (Syracuse University, priority 2008, dated 2013)

Key:
[1] = tested on: P. aeruginosa strain PAO1 biofilm formation; test: Microplate-based biofilm assay (crystal violet, OD540) of P. aeruginosa; assay type: cell-based, Pseudomonas aeruginosa; conditions: 24 hours
Protocol: A microplate-based biofilm assay was used to further investigate whether furanones inhibit biofilm formation of P. aeruginosa strain PAO1. For this biofilm assay the strain was grown at 30° C. without shaking in M63 minimal medium containing 13.6 g/L KH2PO4, 2 g/L (NH4)2SO4, 0.5 mg/L FeSO4, 0.12 g/L MgSO4, 5 g/L vitamin free casamino acids and 5 g/L glucose (pH 7.0). The synthesis of the brominated furanones, the structures of which are shown in FIGS. 1A and 1B, was according to Example 1.
The overnight culture of P. aeruginosa was used to inoculate fresh M63 medium supplemented with furanones (0, 30 or 60 μg/mL) to an OD600 of 0.05 in 96-well plates. Four replicates were tested for each condition. The plates were incubated at 30° C. without shaking for 24 hours. The biofilm mass was quantified by following the protocol described previously. Briefly, the planktonic cells were carefully removed by pipetting and the plates with biofilms were washed three times with deionized H2O and dried by gently patting on a piece of paper towel. To quantify biofilms, the plates were stained with 0.1% crystal violet and incubated for 20 minutes at room temperature. The plates were then washed three times with deionized H2O to remove extra dyes. An OD540 was measured to quantify the biofilm on the bottom of each well.

E. coli = E. coli growth inhibition (results not shown); assay type: cell-based
[2] = tested on: Trametes versicolor strain TV7B2-59; test: Fungal growth on MEA plates with furanone; assay type: cell-based; set-up: key to growth on plate, TV7B2-59: −: No growth was observed; +: normal growth was seen; conditions: for growth on plate, TV7B2-59: 60 μg/mL, 7 days at 30° C.; for growth inhibition test, inhibitory concentration, TV7B2-59: tested at 1, 5, 30, 60 μg/mL, 7 days
Protocol: (§1) This Example examines the effect of brominated furanones on the growth of fungi associated with damage to building material. Six fungal strains were the subject of these experiments; Gloeophyllum trabeum (strains GT598 and GT599), Chaetomium globosum (wildtype strain and CG572), and Trametes versicolor (strains TV7B2-59 and TV57MAD277). The species were developed on 2% Malt-Extract Agar (MEA) plates and stored inverted at 4° C. The stocks were refreshed by streaking new plates every two months.
(§2) The brominated and non-brominated furanones were added to MAE agar plates at different concentrations. The brominated furanones were dissolved in either ethanol (“EtOH”) or methanol (“MeOH”) as stock solutions, as shown in Table 5. The non-brominated furanones were purchased from Sigma (St. Louis, Mo.). The furanone stocks were stored at 4° C.
(§3) MAE agar plates containing the same amounts of ethanol/methanol were also prepared as negative controls to eliminate any solvent effects. The plates were prepared using either 90 mm or 60 mm petri dishes and were stored inverted at 4° C. until use.
(§4) Different concentrations of furanones were studied to compare their antifungal activities. The plates were inoculated with the six fungal strains using a platinum loop and were incubated upside down at 30° C. for 7 days to monitor the growth. The initial screening was performed using a single 60 μg/mL furanone concentration.

[3] = tested on: Trametes versicolor strain TV57MAD277; test: Fungal growth on MEA plates with furanone; assay type: cell-based; set-up: key to growth on plate, TV57MAD277: −: No growth was observed; +: normal growth was seen; conditions: for growth on plate, TV57MAD277: 60 μg/mL, 7 days at 30° C.; for growth inhibition test, inhibitory concentration, TV57MAD277: tested at 1, 5, 30, 60 μg/mL, 7 days
Protocol: as §1, §2, §3, §4

[4] = tested on: Chaetomium globosum wildtype strain (CG); test: Fungal growth on MEA plates with furanone; assay type: cell-based; set-up: key to growth on plate, CG: −: No growth was observed; +: normal growth was seen; conditions: for growth on plate, CG: 60 μg/mL, 7 days at 30° C.; for growth inhibition test, inhibitory concentration, CG: tested at 1, 5, 30, 60 μg/mL, 7 days
Protocol: as §1, §2, §3, §4

[5] = tested on: six fungal strains (Gloeophyllum trabeum, Chaetomium globosum, Trametes versicolor); test: Fungal growth on MEA plates with furanone, statements for all six strains; assay type: cell-based; conditions: for growth inhibition of the six fungal strains, comparison: 1 to 60 μg/mL
Protocol: as §1, §2, §3, §4

[6] = tested on: Gloeophyllum trabeum strain GT599; test: Fungal growth on MEA plates with furanone; assay type: cell-based; set-up: key to growth on plate, GT599: −: No growth was observed; +: normal growth was seen; conditions: for growth on plate, GT599: 60 μg/mL, 7 days at 30° C.; for growth inhibition test, inhibitory concentration, GT599: tested at 1, 5, 30, 60 μg/mL, 7 days
Protocol: as §1, §2, §3, §4

[7] = tested on: Gloeophyllum trabeum strain GT598; test: Fungal growth on MEA plates with furanone; assay type: cell-based; set-up: key to growth on plate, GT598: −: No growth was observed; +: normal growth was seen; conditions: for growth on plate, GT598: 60 μg/mL, 7 days at 30° C.; for growth inhibition test, inhibitory concentration, GT598: tested at 1, 5, 30, 60 μg/mL, 7 days
Protocol: as §1, §2, §3, §4

[8] = tested on: Chaetomium globosum CG572; test: Fungal growth on MEA plates with furanone; assay type: cell-based; set-up: key to growth on plate, CG572: −: No growth was observed; +: normal growth was seen; conditions: for growth on plate, CG572: 60 μg/mL, 7 days at 30° C.; for growth inhibition test, inhibitory concentration, CG572: tested at 1, 5, 30, 60 μg/mL, 7 days
Protocol: as §1, §2, §3, §4

[9] = tested on: P. aeruginosa strain PAO1; test: Microplate based planktonic growth assay of P. aeruginosa; assay type: cell-based, Pseudomonas aeruginosa; conditions: for reduction of specific growth rate compared to furanone-free control: planktonic growth
Protocol: The antimicrobial activities of furanones on the planktonic growth of P. aeruginosa strain PAO1 was examined using a microplate based growth assay. An overnight culture of the strain grown in LB medium at 30° C. was used to inoculate M63 minimal medium supplemented with furanones at 0, 30 or 60 μg/mL to an optical density at 600 nm (OD600) of 0.05 in 96-well plates. The plates were then incubated at 30° C. with shaking at 200 rpm. The reading of OD600 was measured every 60 minutes for six hours using a microplate reader (ELx808, BioTek Instruments). Six replicates were tested for every sample. The synthesis of the brominated furanones, the structures of which are shown in FIGS. 1A and 1B, was according to Example 1.

[10] = tested on: Candida albicans strain SC5341; test: C. albicans growth curves in SD medium with furanones (96-well plates, OD600); assay type: cell-based; conditions: tested 2.5, 5, 10, 20 μg/mL
Protocol: To evaluate the effects of furanones on fungal growth, C. albicans was grown in a synthetic dextrose (“SD”) medium supplemented with 0, 2.5, 5, 10, or 20 μg/mL of one of eight different brominated furanones and […] furanones (BF1, BF8, BF9, BF11, BF12, BF14, NF1, NF2, or NF3).
The Candida albicans strain SC5341 used in this study was provided by Dr. Sean Palecek from the University of Wisconsin-Madison. C. albicans was routinely grown overnight at 30° C. and shaken at 200 rpm in a SD medium containing 0.67% (wt/vol) yeast nitrogen base without amino acids and 2% (wt/vol) dextrose, which was buffered with 0.165 M morpholinepropanesulfonic acid (MOPS, Sigma), and pH-adjusted to 7.0 with solid NaOH. The overnight culture was then sub-cultured in 25 mL of fresh SD medium to an initial optical density at 600 nm (OD600) of 0.005 and grown till the OD600 reached 1.0. The OD600 values were measured using a Spectronic GENESYS 5 UV-Vis spectrophotometer (Thermo Fisher Scientific®, Waltham, Mass.). This culture was used to inoculate sterile 96-well plates (Costar® No. 9017, Corning®, Corning, N.Y.) containing SD medium supplemented with furanones at different concentrations (0, 2.5, 5, 10, 20 μg/mL) to an OD600 of 0.06 in at least duplicates. The BF1, 8, 9, 11, 12, 14 and NF1-3 compounds were dissolved in ethanol at a concentration of 20 mg/mL. The BF10 compound was dissolved in methanol at a concentration of 20 mg/mL. The amounts of methanol and ethanol were adjusted to be the same for each sample to eliminate the effects of solvents. The samples were then incubated at 30° C. with shaking at 200 rpm, and the OD600 in each well was measured at 0, 4, 7, 17, and 42 hours after inoculation, using an ELx808™ Absorbance Microplate Reader (BioTek Instruments® Inc., Winooski, Vt.).

SMILES | inhibition of biofilm formation ([1]; 30 μg/mL) | inhibition of biofilm formation ([1]; 60 μg/mL) | growth inhibition test, inhibitory concentration, TV7B2-59 [2] [µg/mL] | growth inhibition test, inhibitory concentration, TV57MAD277 [3] [µg/mL] | growth inhibition test, inhibitory concentration, CG [4] [µg/mL] | growth inhibition test, inhibitory concentration, GT599 [6] [µg/mL] | growth inhibition test, inhibitory concentration, GT598 [7] [µg/mL] | growth inhibition test, inhibitory concentration, CG572 [8] [µg/mL] | inhibitory effect on planktonic growth ([9]; 30 μg/mL) | further results
O=C1OC(=C(Br)Br)C=C1CBr [BF11, 3-(bromomethyl)-5-(dibromomethylene)furan-2-one] | significantly inhibited | significantly inhibited | 5 | 5 | 5 | 5 | 1 | 5 |  | growth inhibition of E. coli (E. coli): significantly inhibit; growth on plate, TV7B2-59 [2]: −; growth on plate, TV57MAD277 [3]: −; growth on plate, CG [4]: −; growth inhibition of the six fungal strains, comparison [5]: most significant inhibition; growth on plate, GT599 [6]: −; growth on plate, GT598 [7]: −; growth on plate, CG572 [8]: −; reduction of specific growth rate compared to furanone-free control ([9]; 30 μg/mL): 27.3%; reduction of specific growth rate compared to furanone-free control ([9]; 60 μg/mL): 65.0%
O=C1C=C(CBr)C(=O)O1 [BF15, 3-(bromomethyl)-2,5-furandione] |  |  |  |  |  |  |  |  |  | growth on plate, TV7B2-59 [2]: −; growth on plate, TV57MAD277 [3]: −; growth on plate, CG [4]: −; growth on plate, GT599 [6]: −; growth on plate, GT598 [7]: −; growth on plate, CG572 [8]: −
CC1=C(Br)C(C(Br)Br)OC1=O (stereo not drawn) [BF13, 4-bromo-5-(dibromomethyl)-3-methylfuran-2(5Br)-one] | significantly inhibited | significantly inhibited | 60 | 5 | 60 | 60 | 60 | 60 | did not exhibit significant inhibitory effects | 
CC1=C(Br)C(C(Br)Br)OC1=O (stereo not drawn) [BF14, 4-bromo-5-(dibromomethyl)-3-methylfuran-2(5H)-one] |  |  |  |  |  |  |  |  | did not exhibit significant inhibitory effects | inhibition of biofilm formation ([1]; 30 and 60 μg/mL): non-inhibitory; lowest concentration showing growth inhibition [10]: 20 µg/mL
O=C1O/C(=C\Br)C(Br)=C1CBr [BF12, 4-bromo-3-(bromomethyl)-5Z-(bromomethylene)furan-2-one] | significantly inhibited | significantly inhibited | 5 | 5 | 1 | 5 | 1 | 5 |  | growth inhibition of E. coli (E. coli): significantly inhibit; growth inhibition of the six fungal strains, comparison [5]: most significant inhibition; reduction of specific growth rate compared to furanone-free control ([9]; 30 μg/mL): 91.2%; reduction of specific growth rate compared to furanone-free control ([9]; 60 μg/mL): 100%
COC1=CC(=O)OC1 [NF2, 4-Methoxy-2(5H)-furanone; IUPAC: 4-methoxy-2(5H)-furanone, reference compound] |  |  |  |  |  |  |  |  |  | growth inhibition of the six fungal strains ([5]; 60 μg/mL, 7 days): did not show any apparent inhibition
CC1=CC(=O)OC1=O [NF1, Citraconic anhydride; IUPAC: 3-methyl-2,5-furandione, reference compound] |  |  | 60 | 60 | 60 | 60 | 60 | 60 | did not exhibit significant inhibitory effects | 
CC1=CC(C)OC1=O (stereo not drawn) [NF3, 3,5-Dimethylfuran-2(5H)-one, reference compound] |  |  |  |  |  |  |  |  | did not exhibit significant inhibitory effects | 
